# Data reported in patent US20230181614A1, “ADMINISTRATION OF CITICOLINE TO IMPROVE COGNITIVE PERFORMANCE, ATTENTIONAL PERFORMANCE, AND MOTOR FUNCTION” (KYOWA HAKKO BIO CO., LTD., priority 2014, published 2023).
# System: Healthy subjects, ages 13-18
# Test: General Questionnaire
# Type: in vivo, human
# Text: Study participants were screened by telephone prior to study enrollment. Healthy subjects, ages 13-18, with no significant medical conditions and no history of co-morbid psychiatric disorder, current Axis I or II diagnosis, or previous participation in a pharmacotherapeutic trial, were selected. Use of any psychotropic medication or any previous head injury resulting in loss of consciousness for 5 or more minutes were used as exclusion criteria. While no participant met criteria for a neuropsychiatric disorder at enrollment, clinical assessments were still completed throughout the study to evaluate changes in mood state. In addition, self-reports of sleep habits, lifestyle, and exercise routines were also administered at baseline as well as at each study visit to assess changes in health habits during study participation. Following the completion of Visit 1 assessment, participants were given their 28-day supply of citicoline (250 mg or 500 mg) or placebo, which was randomly assigned. They were instructed to take one capsule a day every day for the next 28 days. Visit 2 occurred fourteen days after Visit 1. At Visit 2, the remaining study pills were counted and participant dosage calendars were checked to ensure compliance with the protocol. Additional neuropsychological measures and clinical assessments were administered during this visit. Participants returned for Visit 3 fourteen days later, on the 28th day of their study participation. The pill bottle and the dosage calendar were collected from each participant. Urine and blood were again obtained. Participants also participated in similar clinical and neuropsychological testing and clinical measures that were given during visit 1. The General Questionnaire and Exercise and Life Style Questionnaire are self-report questionnaires designed to assess a variety of symptoms, behaviors, and self-perceptions, including mood, complexion, exercise, food, and alcohol habits of each of the participants. The General Questionnaire was administered during each of the three study visits; the Exercise and Life Style Questionnaire was administered during each of the three study visits. The General Questionnaire included five summary categories (Vision, Depression, Attention, Sleep, and Complexion) each of which had multiple individual items. Within and between group analyses are reported below for each of the summary categories.
compound,measurement,setting,value
"C[N+](C)(C)CCOP(=O)(O)OP(=O)([O-])OC[C@H]1O[C@@H](n2ccc(N)nc2=O)[C@H](O)[C@@H]1O [citicoline, Cytidine 5′-diphosphocholine]","General Questionnaire Vision Q2, Mean","250 mg/day, V3 (day 28)",2.44
same,"General Questionnaire Vision Q3, Mean","250 mg/day, V3 (day 28)",1.81
same,"General Questionnaire Vision Total, Mean","250 mg/day, V3 (day 28)",6.59
same,Attention Total V3-V1 Difference Mean,500 mg/day,-5.17
same,Complexion Total V3-V1 Difference Mean,500 mg/day,-1.42
same,Depression Total V3-V1 Difference Mean,500 mg/day,-5.21
same,Sleep Total V3-V1 Difference Mean,500 mg/day,-3.25
same,Vision Total V3-V1 Difference Mean,500 mg/day,-1.50
same,Attention Q13 V1 Mean,"500 mg/day, Visit 1",2.42
same,Attention Q14 V1 Mean,"500 mg/day, Visit 1",2.21
same,Attention Q15 V1 Mean,"500 mg/day, Visit 1",2.63
same,Attention Q16 V1 Mean,"500 mg/day, Visit 1",2.83
same,Attention Q17 V1 Mean,"500 mg/day, Visit 1",1.96
same,Attention Q18 V1 Mean,"500 mg/day, Visit 1",2.79
same,Attention Q19 V1 Mean,"500 mg/day, Visit 1",7.29
same,Attention Q20 V1 Mean,"500 mg/day, Visit 1",2.54
same,Attention Q21 V1 Mean,"500 mg/day, Visit 1",3.25
same,Attention Q22 V1 Mean,"500 mg/day, Visit 1",1.83
same,Attention Q23 V1 Mean,"500 mg/day, Visit 1",2.92
same,Attention Q24 V1 Mean,"500 mg/day, Visit 1",2.46
same,Attention Total V1 Mean,"500 mg/day, Visit 1",35.13
same,Complexion Q33 V1 Mean,"500 mg/day, Visit 1",2.58
same,Complexion Q34 V1 Mean,"500 mg/day, Visit 1",1.88
same,Complexion Total V1 Mean,"500 mg/day, Visit 1",4.46
same,Depression Q4 V1 Mean,"500 mg/day, Visit 1",1.75
same,Depression Q5 V1 Mean,"500 mg/day, Visit 1",2.46
same,Depression Q6 V1 Mean,"500 mg/day, Visit 1",2.21
same,Depression Q7 V1 Mean,"500 mg/day, Visit 1",3.13
same,Depression Q8 V1 Mean,"500 mg/day, Visit 1",1.92
same,Depression Q9 V1 Mean,"500 mg/day, Visit 1",3.04
same,Depression Q10 V1 Mean,"500 mg/day, Visit 1",2.00
same,Depression Q11 V1 Mean,"500 mg/day, Visit 1",2.00
same,Depression Q12 V1 Mean,"500 mg/day, Visit 1",2.04
same,Depression Total V1 Mean,"500 mg/day, Visit 1",20.54
same,Sleep Q25 V1 Mean,"500 mg/day, Visit 1",3.54
same,Sleep Q26 V1 Mean,"500 mg/day, Visit 1",2.54
same,Sleep Q27 V1 Mean,"500 mg/day, Visit 1",2.00
same,Sleep Q28 V1 Mean,"500 mg/day, Visit 1",2.96
same,Sleep Q29 V1 Mean,"500 mg/day, Visit 1",2.00
same,Sleep Q30 V1 Mean,"500 mg/day, Visit 1",2.04
same,Sleep Q31 V1 Mean,"500 mg/day, Visit 1",2.33
same,Sleep Q32 V1 Mean,"500 mg/day, Visit 1",3.54
same,Sleep Total V1 Mean,"500 mg/day, Visit 1",20.83
same,Vision Q1 V1 Mean,"500 mg/day, Visit 1",2.75
same,Vision Q2 V1 Mean,"500 mg/day, Visit 1",2.54
same,Vision Q3 V1 Mean,"500 mg/day, Visit 1",1.71
same,Vision Total V1 Mean,"500 mg/day, Visit 1",7.00
same,Attention Q13 V3 Mean,"500 mg/day, Visit 3",1.96
same,Attention Q14 V3 Mean,"500 mg/day, Visit 3",1.83
same,Attention Q15 V3 Mean,"500 mg/day, Visit 3",1.92
same,Attention Q16 V3 Mean,"500 mg/day, Visit 3",1.92
same,Attention Q17 V3 Mean,"500 mg/day, Visit 3",1.75
same,Attention Q18 V3 Mean,"500 mg/day, Visit 3",1.92
same,Attention Q19 V3 Mean,"500 mg/day, Visit 3",8.42
same,Attention Q20 V3 Mean,"500 mg/day, Visit 3",1.92
same,Attention Q21 V3 Mean,"500 mg/day, Visit 3",2.42
same,Attention Q22 V3 Mean,"500 mg/day, Visit 3",1.63
same,Attention Q23 V3 Mean,"500 mg/day, Visit 3",2.13
same,Attention Q24 V3 Mean,"500 mg/day, Visit 3",2.17
same,Attention Total V3 Mean,"500 mg/day, Visit 3",29.96
same,Complexion Q33 V3 Mean,"500 mg/day, Visit 3",1.75
same,Complexion Q34 V3 Mean,"500 mg/day, Visit 3",1.29
same,Complexion Total V3 Mean,"500 mg/day, Visit 3",3.04
same,Depression Q4 V3 Mean,"500 mg/day, Visit 3",1.58
same,Depression Q5 V3 Mean,"500 mg/day, Visit 3",1.88
same,Depression Q6 V3 Mean,"500 mg/day, Visit 3",1.67
same,Depression Q7 V3 Mean,"500 mg/day, Visit 3",2.25
same,Depression Q8 V3 Mean,"500 mg/day, Visit 3",1.46
same,Depression Q9 V3 Mean,"500 mg/day, Visit 3",2.00
same,Depression Q10 V3 Mean,"500 mg/day, Visit 3",1.54
same,Depression Q11 V3 Mean,"500 mg/day, Visit 3",1.38
same,Depression Q12 V3 Mean,"500 mg/day, Visit 3",1.58
same,Depression Total V3 Mean,"500 mg/day, Visit 3",15.33
same,Sleep Q25 V3 Mean,"500 mg/day, Visit 3",2.50
same,Sleep Q26 V3 Mean,"500 mg/day, Visit 3",1.71
same,Sleep Q27 V3 Mean,"500 mg/day, Visit 3",1.83
same,Sleep Q28 V3 Mean,"500 mg/day, Visit 3",2.29
same,Sleep Q29 V3 Mean,"500 mg/day, Visit 3",1.96
same,Sleep Q30 V3 Mean,"500 mg/day, Visit 3",1.96
same,Sleep Q31 V3 Mean,"500 mg/day, Visit 3",2.21
same,Sleep Q32 V3 Mean,"500 mg/day, Visit 3",3.13
same,Sleep Total V3 Mean,"500 mg/day, Visit 3",17.58
same,Vision Q1 V3 Mean,"500 mg/day, Visit 3",1.92
same,Vision Q2 V3 Mean,"500 mg/day, Visit 3",2.08
same,Vision Q3 V3 Mean,"500 mg/day, Visit 3",1.50
same,Vision Total V3 Mean,"500 mg/day, Visit 3",5.50
